These results are taken from a melting point compilation (Tetko et al.).

By melting point is commonly meant the temperature, or range, at which the solid turns liquid.

The structures appear in SMILES notation.

Molecule `COc1c(F)c(F)cc(C(=O)O)c1F` had a melting point of 115 °C.

`CNC(=O)C=C(C)OP(=O)(OC)OC` came in with a melting point of 55 °C.

`Cc1ccc(C(N)C(N)c2ccc(C)cc2)cc1` (configuration not stated): the melting point fell in the range of 113 to 117 °C.

In turn, `CSc1nsc(S)n1` showed a melting point of 143 to 147 °C.

In the case of `C[Si](N[Si](C)(c1ccccc1)c1ccccc1)(c1ccccc1)c1ccccc1`, the melting point worked out at 91 °C.

`CN(C)c1cccc(N(C)C)c1C#N` returned a melting point of 71 to 73 °C.

`Cc1nc2sccn2c1C(=O)O`: the melting point fell in the range of 164 to 165 °C.

On to `CCOC(=O)c1sc(SC)c(S(=O)(=O)C(C)C)c1N`, for which the melting point was 143 to 146 °C.

As for `CC(C)(C)OC(=O)N[C@H](CO)Cc1ccccc1`, the melting point is 97 °C.

Regarding `O=C(CCl)Nc1ccc(Cl)cc1C(=O)c1ccccc1Cl`, the melting point lay within 161 to 163 °C.

`COC(=O)c1ccc(CO)cc1` registered a melting point of 45 to 50 °C.

In turn, `Oc1c(-c2ccc3ccccc3c2O)ccc2ccccc12` showed a melting point of 300 °C.

The molecule `CCCCCCCCCCC(C)Br` (configuration not stated) gave a melting point of -96 °C.

In turn, `O=S(=O)(Cl)c1c(Cl)ccc2nonc12` yielded a melting point of 73 to 75 °C.

Molecule `c1ccc2c(c1)CNC2` registered a melting point of 17 °C.

`O=C(O)c1cc2cc(Cl)cc(Cl)c2oc1=O` displayed a melting point of 198 to 200 °C.

`OCc1ccc(-c2ccncc2)cc1` had a melting point of 173 to 176 °C.

As to `Cc1nn(-c2ccccc2)nc1C(=O)NNS(=O)(=O)c1ccccc1`, the melting point was in the range of 217 to 219 °C.

As for `O=C(O)CC(=O)CC(=O)O`, the melting point was found to be 133 °C.

Molecule `COC(=O)c1ccccc1CS(=O)(=O)NC(=O)Nc1nc(OC)cc(OC)n1` displayed a melting point of 187 °C.

`O=C(NCC1CCCCN1)c1cc(OCC(F)(F)F)ccc1OCC(F)(F)F` (configuration not stated): the melting point worked out at 146 °C.

Regarding `O=[N+]([O-])c1c(O)c(Cl)cc(Cl)c1Cl`, the melting point is 92.5 °C.

`O=C(O)CCCC1CCCCC1` showed a melting point of 31 °C.

In turn, `OCc1ccc(-c2cccs2)cc1` yielded a melting point of 112 °C.

For `NC(=O)Cc1cccc2ccccc12`, the melting point turned out to be 184 °C.

For `COc1c(C(=O)O)csc1Br`, the melting point lay in the range of 155 to 156 °C.

`Nc1ccc(Cn2cccn2)cc1` gave a melting point of 67 to 69 °C.

With `c1ccc(C/C(=N\Nc2ccccc2)c2cccc3ccccc23)cc1`, the melting point lay within 101 to 102 °C.

The molecule `N#Cc1c(F)cc(Cl)cc1F` had a melting point of 102 °C.

Consider `FC(F)(F)c1ccc2c(c1)NCCC2`, for which the melting point stood at 32 °C.

As to `COc1ccccc1P(c1ccccc1OC)c1ccccc1OC`, the melting point lay within 204 to 208 °C.

As for `COc1cccc2cc(C(=O)O)oc12`, the melting point was 219 °C.

Consider `O=C(Cl)c1sccc1Cl`, for which the melting point lay within 45 to 46 °C.

The molecule `COc1cc(-c2nnc3sc(-c4cccnc4)nn23)cc(OC)c1OC` came in with a melting point of 175 °C.

For `Cc1nc(-c2ccccc2)sc1C=O`, the melting point was 111 to 113 °C.

The molecule `COc1ccc(Br)cc1C=O` gave a melting point of 116 °C.

The molecule `CC(C)(C)c1ccc(OC(=O)c2ccccc2O)cc1` registered a melting point of 62 °C.

Turning to `CC(C)=CCCC(C)=CC=CC(C)=CC=CC(C)=CC=CC=C(C)C=CC=C(C)C=CC=C(C)CCCC(C)(C)O`, the melting point turned out to be 171 °C.

Take `Cc1nccc(O)c1OCc1ccc(Cl)cc1Cl`: the melting point lay in the range of 218 to 222 °C.

The molecule `CNC1=C(c2cccc(C(F)(F)F)c2)C(=O)C(c2ccccc2)O1` (configuration not stated) came in with a melting point of 148 °C.

As to `Cc1cc(C)nc(NS(=O)(=O)c2ccc(N)cc2)n1`, the melting point turned out to be 200 °C.

`O=S(=O)(O)c1ccc(Cl)cc1` registered a melting point of 102 °C.

As for `CCC(C)C1(CC)C(=O)NC(=S)NC1=O` (configuration not stated), the melting point is 169 °C.

The molecule `CC(=O)/C=C1\Cc2ccccc21` showed a melting point of 79 to 79.6 °C.

As for `CC(C)C1(Cc2ccco2)C(=O)NC(=O)NC1=O`, the melting point stood at 169 °C.

In the case of `CCC(O)c1ccc(-c2ccccc2F)cc1` (configuration not stated), the melting point was 55 to 56 °C.

On to `O=C1NC(CCO)C(=O)NC1CCO` (configuration not stated), for which the melting point fell in the range of 188 to 192 °C.

In turn, `C[C@]12CCC(O)CC1=CC[C@@H]1[C@@H]2CC[C@]2(C)C(O)CC[C@@]12C` (some centres not stated) yielded a melting point of 182 to 184 °C.

`CCC1(C2=CCCCCC2)C(=O)NC(=O)NC1=O` showed a melting point of 174 °C.

With `CCOC(=O)c1cnn(-c2ccc(Cl)cc2)c1C(F)(F)F`, the melting point was in the range of 50 to 52 °C.

Take `O=C(O)CNc1ccccc1C(=O)O`: the melting point is 218 °C.

In turn, `S=c1nnc(-c2ccccc2)c(Nc2ccc(Cl)cc2)[nH]1` registered a melting point of 314 °C.

As for `CCOC(=O)c1nn(-c2ccc(F)cc2)c(-c2cccs2)c1S(=O)(=O)c1ccccc1`, the melting point amounted to 151 °C.

Turning to `Clc1cc2c(cc1Cl)Oc1c(cc(Cl)c(Cl)c1Cl)O2`, the melting point amounted to 240 °C.

`CCOc1cccc(OCC(F)(F)F)c1C#N` came in with a melting point of 78 to 80 °C.

`O=C(c1ccc(C(=O)C(Cl)(Cl)Cl)cc1)C(Cl)(Cl)Cl` yielded a melting point of 121 °C.

The molecule `COc1ccc(C(C)=NO)cc1` showed a melting point of 80 °C.

`Nc1ccc(-c2ccc(N)cc2)cc1` had a melting point of 124 °C.

Turning to `Clc1cc2c(oc3c(Cl)cccc32)c(Cl)c1Cl`, the melting point turned out to be 190 °C.

`Cc1cc(NS(=O)(=O)c2ccc(N)cc2)nc(C)n1`: the melting point turned out to be 243 °C.

For `COc1ccc(C(=O)Cn2cc([N+](=O)[O-])nc2C)cc1`, the melting point was in the range of 250 to 252 °C.

As to `CCOC(=O)c1c[nH]c2c(F)c(F)c(F)cc2c1=O`, the melting point lay within 267 to 272 °C.

`N#CC1=C(C#N)C(=O)C(NCCc2ccccc2)=C(Cl)C1=O` came in with a melting point of 265 to 267 °C.

`COc1ccc(C(O)(c2cncnc2)C2CC2)cc1` (configuration not stated) gave a melting point of 110 °C.

`COC(=O)c1cccc(CN2CCOCC2)c1` gave a melting point of 46 to 47 °C.

Molecule `CCOC(=O)c1cccc(Oc2cncc(C)n2)c1` had a melting point of 50.5 to 51.5 °C.

The molecule `CC(=O)OC1C(C2COC(C)(C)O2)OC2OC(C)(C)OC21` (configuration not stated) came in with a melting point of 60 to 62 °C.

Molecule `O=C(O)CSCCSCC(=O)O` came in with a melting point of 110 °C.

For the molecule `Cc1nc2ccccn2c1CO`, the melting point lay in the range of 157 to 158 °C.

`COC(=O)C(Cc1ccc(O)cc1)NC(=O)OC(C)(C)C` (configuration not stated) yielded a melting point of 107 °C.

As for `CC1CC=CC2C3OC3(C)C(C)C3C(Cc4ccccc4)NC(=O)C23OC(=O)OC=CC(C)(O)C1=O` (configuration not stated), the melting point came out at 206 °C.

`O=S(=O)(Cl)Cc1ccccc1F` yielded a melting point of 55 to 56 °C.

Turning to `N#CC(C#N)=NNc1cc(Cl)cc(Cl)c1`, the melting point is 192 to 194 °C.

In turn, `O=C(c1ccccc1)c1ccc(C(=O)c2ccccc2)cc1` gave a melting point of 163 °C.

For `CCCCCCCCOc1ccccc1OCCCCCCCC`, the melting point fell in the range of 22 to 25 °C.

`Cc1cc(C)c2c(=O)n(-c3ccc(Br)cc3)c(S)nc2n1`: the melting point lay in the range of 335 to 337 °C.

`CC(C)(C)OC(=O)N[C@H]1CCCNC1` gave a melting point of 125 °C.
